What was measured:
BAE cells [1] = tested on: BAE cells
BAE cells [2] = assay: cells; details: Bos taurus, Endothelial cell, 24 h, read-out: IC50 for viability
[3] = Binding of GSAO to dithiols, loss of thiols in DTNB assay; details: errors are 1 SD, read-out: Dissociation Constant
Procedure: FIG. 12. Interaction of GSAO with synthetic. Deptide and protein dithiols. DMP (A) (15 μM), 6,8-thioctic acid (B) ([…]), dithiothreitol (C) (8.5 μM), TrpCysGlyProCysLys (D) (4.6 μM), TrpCysGlyHisCysLys (E) (5.5 μM) or thioredoxin (F) (4.1 μM corresponding to 20.6 μM thiols) was incubated with GSAO (0–56 μM) for 10 minutes. DTNB (950 μM) was then added and the reactions incubated for a further 10 minutes. The concentration of thiol in the reactions was determined from the absorbance of the TNB dianion at 412 nm. The solid lines represent the best non-linear least squares fit of the data to Equation 1 (A to E) or Equation 2 (F) and have been drawn using the parameter estimates in Table 1. […]
A stock solution of DMP (5 μL, 50 μmol) was dissolved in DMSO (995 μL), giving a concentration of 50 mM DMP. […] The activity of the arsenical could then be determined by the titration of varying amounts of arsenical against the DMP working solution (10 μL) in a 96-well microbitre plate, with the total volume made up to 195 μL by addition of buffer. […] The absorbance at 412 nm due to the formation of the TNB dianion was measured using a Molecular Devices Thermomax Plus (Palo Alto, Calif.) microplate reader. […]
Binding of GSAO to dithiols was measured from loss of thiols using the DTNB assay described above. […]

[4] = Interaction of GSAO with synthetic, peptide and protein dithiols (summary); assay type: binding; details: units printed within the range; read-out: dissociation constants, range over all dithiols
Procedure: FIG. 12. Interaction of GSAO with synthetic. Deptide and protein dithiols. DMP (A) (15 μM), 6,8-thioctic acid (B) ([…]), dithiothreitol (C) (8.5 μM), TrpCysGlyProCysLys (D) (4.6 μM), TrpCysGlyHisCysLys (E) (5.5 μM) or thioredoxin (F) (4.1 μM corresponding to 20.6 μM thiols) was incubated with GSAO (0–56 μM) for 10 minutes. DTNB (950 μM) was then added and the reactions incubated for a further 10 minutes. The concentration of thiol in the reactions was determined from the absorbance of the TNB dianion at 412 nm. The solid lines represent the best non-linear least squares fit of the data to Equation 1 (A to E) or Equation 2 (F) and have been drawn using the parameter estimates in Table 1. The dotted line in part A represents a simulated titration assuming an infinite affinity of GSAO for the dithiol. GSAO bound to both synthetic, peptide and protein dithiols with dissociation constants in the range 130 nM to 1.4 μM.
Binding of GSAO to dithiols was measured from loss of thiols using the DTNB assay described above. The dissociation constant, Kd, for GSAO binding to dithiols was determined by incubating increasing concentrations of GSAO, I, with a fixed dithiol concentration, [S]T, and measuring the remaining dithiol using DTNB. Note that the concentration of dithiol equals half the TNB concentration. […]

adherent BAE cells = assay: Membrane permeability, tritiated GSAO in cytosol; assay type: in vitro ADME, bovine; details: 50 μM GSAO, 1 hour
Procedure: Human T cells (A3.01) or adherent BAE cells were incubated with complete medium containing 50 μM GSAO and ˜100,000 counts per minute of tritiated GSAO for 1 or 72 hours. Tritiated GSAO was prepared exactly as described for GSAO except that glycine-2-^3H-glutathione (NEN, Boston, Mass.) was used in place of cold glutathione. The cells were washed and lysed by two cycles of freezing and thawing. The cytosolic constituents were collected by differential centrifugation (Ausbel et al., 2000) and the tritiated GSAO was measured. Only 0.5% of the total tritiated GSAO was found in the T cell cytosol and 0.04% in the BAE cytosol after 1 hour. Moreover, only 4.5% of the GSAO penetrated the T cell membrane after 72 hours of culture.

| SMILES | effect on BAE viability (BAE cells [1]) | IC50 (BAE cells [2]) [nM] | Kd ([3]; ring size 6) [nM] | Kd ([3]; ring size 7) [nM] | Kd [4] [nM] | total tritiated GSAO found in the cytosol (adherent BAE cells) [%] |
| --- | --- | --- | --- | --- | --- | --- |
| N[C@@H](CCC(=O)N[C@@H](CSCC(=O)Nc1ccc([As](=O)(O)O)cc1)C(=O)NCC(=O)O)C(=O)O [GSAA, 4-(N-(S-glutathionylacetyl)amino)phenylarsonic acid, reference compound] | no significant effect |  |  |  |  |  |
| NC(CCC(=O)NC(CSCC(=O)Nc1ccc([As]=O)cc1)C(=O)NCC(=O)O)C(=O)O (stereo not drawn) [GSAO, 4-(N-(S-glutathionylacetyl)amino)-phenylarsenoxide] |  | ~100000 | 200 ± 50 | 420 | 130 to 1400 | 0.04 |

Reference: US7186695B2 (priority 2001, dated 2007)
